Data taken from ChEMBL document CHEMBL5247616, “Discovery of a NADPH oxidase inhibitor, (E)-3-cyclohexyl-5-(4-((2-hydroxyethyl)(methyl)amino)benzylidene)-1-methyl-2-thioxoimidazolidin-4-oneone, as a novel therapeutic for Parkinson's disease” (Eur J Med Chem, 2022).
Activity calls are given as the source filed them. No cut-off for these calls is given here.

Tests used:
[1] = Toxicity in female ICR mouse assessed as survival rate at 300 mg/kg, po administered as single dose for 14 days; assay type: organism-based; details: in vivo, time 14 day
[2] = Cmax in rat plasma at 10 mg/kg, po measured after 24 hrs by HPLC-UV method; assay type: ADME, organism-based; design: time 24 hrs, dose 10 mg/kg, route po
[3] = Toxicity in female ICR mouse assessed as survival rate at 30 mg/kg, iv administered as single dose for 14 days; assay type: organism-based; details: in vivo, time 14 day
[4] = tested on: Mus musculus; experiment: Antineuroinflammatory activity against MPTP induced parkinson's disease in C57BL/6 mouse model assessed as decrease in IbA1+ microglial cells in substantia nigra at 10 mg/kg, po administered for 8 days by immunohistochemistry analysis; assay type: functional, organism-based; details: time 8.0 day
[5] = tested on: BV-2; experiment: Inhibition of cell migration in LPS-induced mouse BV-2 cells at 10 uM incubated for 24 hrs by crystal violet staining based transwell assay; assay type: functional
[6] = Elimination half life in rat at 10 mg/kg, po measured after 24 hrs by HPLC-UV method; assay type: ADME, organism-based; details: in vivo, read-out: beta t1/2 (converted)
[7] = Apparent volume of distribution in rat at 10 mg/kg, po measured after 24 hrs by HPLC-UV method; assay type: ADME, organism-based; details: in vivo
[8] = Elimination half life in rat at 2 mg/kg, iv measured after 24 hrs by HPLC-UV method; assay type: ADME, organism-based; details: in vivo, read-out: beta t1/2 (converted)
[9] = tested on: Mus musculus; experiment: Antineuroinflammatory activity against MPTP induced parkinson's disease in C57BL/6 mouse model assessed as decrease in IbA1+ microglial cells in striatum at 10 mg/kg, po administered for 8 days by immunohistochemistry analysis; assay type: functional, organism-based; details: time 8.0 day
[10] = Toxicity in female ICR mouse assessed as survival rate at 300 mg/kg, iv administered as single dose for 14 days; assay type: organism-based; details: in vivo, time 14 day
[11] = Cmax in rat plasma at 20 mg/kg, po measured after 24 hrs by HPLC-UV method; assay type: ADME, organism-based; design: time 24 hrs, dose 20 mg/kg, route po
[12] = tested on: BV-2; experiment: Inhibition of LPS-induced ROS production in mouse BV-2 cells preincubated for 30 mins followed by LPS addition and measured at 10 sec interval for 15 mins by lucigenin based chemiluminescence assay; assay type: functional, cell-based; details: dose 1-10000 nM, time 45.0 min
[13] = AUClast in rat at 20 mg/kg, po measured after 24 hrs by HPLC-UV method; assay type: ADME, organism-based; design: dose 20 mg/kg, time 24 hrs, route po; details: in vivo
[14] = Toxicity in male ICR mouse assessed as survival rate at 30 mg/kg, iv administered as single dose for 14 days; assay type: organism-based; details: in vivo, time 14 day
[15] = Toxicity in female ICR mouse assessed as survival rate at 100 mg/kg, po administered as single dose for 14 days; assay type: organism-based; details: in vivo, time 14 day
[16] = Apparent volume of distribution in rat at 20 mg/kg, po measured after 24 hrs by HPLC-UV method; assay type: ADME, organism-based; details: in vivo
[17] = C0 in rat plasma at 2 mg/kg, iv measured after 24 hrs by HPLC-UV method; assay type: ADME, organism-based
[18] = AUClast in rat at 2 mg/kg, iv measured after 24 hrs by HPLC-UV method; assay type: ADME, organism-based; design: time 24 hrs, dose 2 mg/kg, route iv; details: in vivo
[19] = Toxicity in male ICR mouse assessed as survival rate at 100 mg/kg, iv administered as single dose for 14 days; assay type: organism-based; details: in vivo, time 14 day
[20] = tested on: Mus musculus; experiment: Antineuroinflammatory activity against MPTP induced parkinson's disease in C57BL/6 mouse model assessed as […] tyrosine hydroxylase positive dopaminergic neuron in substantia nigra at 10 mg/kg, po administered for 8 days by immunohistochemistry analysis; assay type: functional, organism-based; details: time 8.0 day
[21] = Oral bioavailability in rat at 10 mg/kg measured after 24 hrs by HPLC-UV method; assay type: ADME, organism-based; details: in vivo
[22] = Toxicity in male ICR mouse assessed as survival rate at 100 mg/kg, po administered as single dose for 14 days; assay type: organism-based; details: in vivo, time 14 day
[23] = tested on: Mus musculus; experiment: Antineuroinflammatory activity against MPTP induced parkinson's disease in C57BL/6 mouse model assessed as […] tyrosine hydroxylase positive dopaminergic neuron in striatum at 10 mg/kg, po administered for 8 days by immunohistochemistry analysis; assay type: functional, organism-based; details: time 8.0 day
[24] = Dose normalized clearance in rat at 20 mg/kg, po measured after 24 hrs by HPLC-UV method; assay type: ADME, organism-based; details: in vivo
[25] = Elimination rate constant in rat at 20 mg/kg, po measured after 24 hrs by HPLC-UV method; assay type: ADME, organism-based; details: in vivo, read-out: Ke (converted)
[26] = Clearance in rat at 2 mg/kg, iv measured after 24 hrs by HPLC-UV method; assay type: ADME, organism-based; details: in vivo
[27] = tested on: BV-2; experiment: Antiinflammatory activity in mouse BV-2 cells assessed as suppression of LPS-stimulated iNOS production at 10 uM measured after 24 hrs by qPCR analysis; assay type: functional, cell-based
[28] = Volume of distribution in rat at 2 mg/kg, iv measured after 24 hrs by HPLC-UV method; assay type: ADME, organism-based; details: in vivo
[29] = tested on: BV-2; experiment: Antiinflammatory activity in mouse BV-2 cells assessed as suppression of LPS-stimulated TNFalpha production at 10 uM measured after 24 hrs by qPCR analysis; assay type: functional, cell-based
[30] = Toxicity in female ICR mouse assessed as survival rate at 1000 mg/kg, po administered as single dose for 14 days; assay type: organism-based; details: in vivo, time 14 day
[31] = tested on: BV-2; experiment: Antiinflammatory activity in mouse BV-2 cells assessed as suppression of LPS-stimulated IL1beta production at 10 uM measured after 24 hrs by qPCR analysis; assay type: functional, cell-based
[32] = Oral bioavailability in rat at 20 mg/kg measured after 24 hrs by HPLC-UV method; assay type: ADME, organism-based; details: in vivo
[33] = AUClast in rat at 10 mg/kg, po measured after 24 hrs by HPLC-UV method; assay type: ADME, organism-based; design: dose 10 mg/kg, time 24 hrs, route po; details: in vivo
[34] = Tmax in rat at 20 mg/kg, po measured after 24 hrs by HPLC-UV method; assay type: ADME, organism-based; details: in vivo
[35] = Permeability coefficient of the compound across blood brain barrier at pH 7.4 incubated for 4 hrs by PAMPA assay; assay type: ADME; details: read-out: permeability
[36] = Toxicity in male ICR mouse assessed as survival rate at 1000 mg/kg, po administered as single dose for 14 days; assay type: organism-based; details: in vivo, time 14 day
[37] = Tmax in rat at 10 mg/kg, po measured after 24 hrs by HPLC-UV method; assay type: ADME, organism-based; details: in vivo
[38] = Toxicity in male ICR mouse assessed as survival rate at 10 mg/kg, iv administered as single dose for 14 days; assay type: organism-based; details: in vivo, time 14 day
[39] = Toxicity in female ICR mouse assessed as survival rate at 100 mg/kg, iv administered as single dose for 14 days; assay type: organism-based; details: in vivo, time 14 day
[40] = Toxicity in male ICR mouse assessed as survival rate at 300 mg/kg, iv administered as single dose for 14 days; assay type: organism-based; details: in vivo, time 14 day
[41] = Toxicity in male ICR mouse assessed as survival rate at 300 mg/kg, po administered as single dose for 14 days; assay type: organism-based; details: in vivo, time 14 day
[42] = Dose normalized clearance in rat at 10 mg/kg, po measured after 24 hrs by HPLC-UV method; assay type: ADME, organism-based; details: in vivo, read-out: Dose normalized clearance (converted)
[43] = Elimination rate constant in rat at 2 mg/kg, iv measured after 24 hrs by HPLC-UV method; assay type: ADME, organism-based; details: in vivo, read-out: Ke (converted)
[44] = Toxicity in female ICR mouse assessed as survival rate at 10 mg/kg, iv administered as single dose for 14 days; assay type: organism-based; details: in vivo, time 14 day
[45] = Metabolic stability in human liver microsomes assessed as parent compound remaining preincubated for 5 mins followed by NADPH addition and measured after 30 mins by LC-MS/MS analysis; assay type: ADME, Microsome; details: read-out: Stability
[46] = Elimination rate constant in rat at 10 mg/kg, po measured after 24 hrs by HPLC-UV method; assay type: ADME, organism-based; details: in vivo, read-out: Ke (converted)
[47] = Elimination half life in rat at 20 mg/kg, po measured after 24 hrs by HPLC-UV method; assay type: ADME, organism-based; details: in vivo, read-out: beta t1/2 (converted)

CN1C(=S)N(C2CCCCC2)C(=O)/C1=C\c1ccc(N(C)CCO)cc1 gave a survival at 336 h [1] of 100%, a Cmax [2] of 0.609 µg/mL and a survival at 336 h [3] of 100%. The Activity [4] was “Active”, the inhibition [5] was “Active” and the half-life [6] was 301 min. For the same compound, the Vd/F [7] was 1.99 L, the half-life [8] was 47.4 min and the Activity [9] was “Active”. The survival at 336 h [10] was 100%, the Cmax [11] was 0.783 µg/mL and the inhibition [12] was “Dose-Dependent Effect”. It also gave an AUC(0-t) at 24 h [13] of 4.16 µg·h/mL, a survival at 336 h [14] of 100% and a survival at 336 h [15] of 100%. It also gave a Vd/F [16] of 1.82 L, a C0 at 24 h [17] of 1.7 µg/mL and an AUC(0-t) at 24 h [18] of 0.468 µg·h/mL. For the same compound, the survival at 336 h [19] was 100%, the Activity [20] was “Active” and the bioavailability [21] was 56%. The survival at 336 h [22] was 100%, the Activity [23] was “Active” and the Dose normalized clearance [24] was 0.217 L/h. For the same compound, the k el at 24 h [25] was 4.42e-05 s⁻¹, the clearance [26] was 3.62 mL/min and the Activity [27] was “Active”. The Vd [28] was 0.211 L, the Activity [29] was “Active” and the survival at 336 h [30] was 100%. The Activity [31] was “Active”, the bioavailability [32] was 88.9% and the AUC(0-t) at 24 h [33] was 1.31 µg·h/mL. The Tmax [34] was 40.2 min, the Papp at 4 h [35] was 136 nm/s and the survival at 336 h [36] was 100%. For the same compound, the Tmax [37] was 4.98 min, the survival at 336 h [38] was 100% and the survival at 336 h [39] was 100%. It also gave a survival at 336 h [40] of 100%, a survival at 336 h [41] of 100% and a CL/F [42] of 5.68 mL/min. The k el at 24 h [43] was 0.000367 s⁻¹, the survival at 336 h [44] was 100% and the remaining at 0.5 h [45] was 76.3%. The k el at 24 h [46] was 4.72e-05 s⁻¹ and the half-life [47] was 368 min.
